These results are taken from US6794377B2, “Ortho, ortho-substituted nitrogen-containing bisaryl compounds, processes for their preparation, their use as medicaments, and pharmaceutical preparation comprising them” (Aventis Pharma Deutschland GmbH, priority 2000, dated 2004).

By IC50 is commonly meant the concentration at which inhibition is half-maximal.

For this assay, the target named is T1, Kv1.5 channels from humans (Homo sapiens, UniProt P22460).
T1 construct: expressed in transfected cells; host or cells: Xenopus laevis oocytes injected with in vitro synthesized RNA
T1 sequence (P22460 whole entry): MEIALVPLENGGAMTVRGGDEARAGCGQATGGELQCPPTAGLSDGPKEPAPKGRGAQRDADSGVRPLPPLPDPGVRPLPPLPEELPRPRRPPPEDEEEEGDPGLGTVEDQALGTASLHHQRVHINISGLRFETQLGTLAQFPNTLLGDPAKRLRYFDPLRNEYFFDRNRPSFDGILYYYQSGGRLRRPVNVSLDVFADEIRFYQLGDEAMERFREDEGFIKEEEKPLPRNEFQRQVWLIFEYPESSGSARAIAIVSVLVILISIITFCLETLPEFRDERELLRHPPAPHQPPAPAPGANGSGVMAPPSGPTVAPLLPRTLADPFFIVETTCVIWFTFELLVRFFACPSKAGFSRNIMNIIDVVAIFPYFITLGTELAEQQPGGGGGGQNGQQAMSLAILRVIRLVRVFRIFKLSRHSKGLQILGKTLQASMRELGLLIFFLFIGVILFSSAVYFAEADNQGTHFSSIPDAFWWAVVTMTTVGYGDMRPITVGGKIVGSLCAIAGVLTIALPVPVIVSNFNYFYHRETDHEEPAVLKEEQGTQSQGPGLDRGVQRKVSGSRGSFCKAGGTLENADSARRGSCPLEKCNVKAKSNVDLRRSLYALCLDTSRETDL
Put plainly: Kv1.5 currents in Xenopus oocytes, 2-microelectrode voltage clamp. Particulars: human Kv1.5 expressed in Xenopus laevis oocytes, voltage jumps to 0 mV and 40 mV lasting 500 ms, room temperature, Hill equation. The assay is classed as cell-based. As to the method:
Kv1.5 channels from humans were expressed in Xenopus oocytes. To this end, oocytes from Xenopus laevis were first isolated and defolliculated. RNA coding for Kv1.5 synthesized in vitro was then injected into these oocytes. After a Kv1.5 protein expression for 1-7 days, Kv1.5 currents were measured on the oocytes using the 2-microelectrode voltage clamp technique. The Kv1.5 channels were in this case as a rule activated using voltage jumps to 0 mV and 40 mV lasting 500 ms. The bath was rinsed using a solution of the following composition: NaCl 96 mM, KCl 2 mM, CaCl2 1.8 mM, MgCl2 1 mM, HEPES 5 mM (titrated with NaOH to pH 7.4). These experiments were carried out at room temperature. The following were employed for data acquisition and analysis: Gene clamp amplifier (Axon Instruments, Foster City, USA) and MacLab D/A converter and software (ADinstruments, Castle Hill, Australia). The substances according to the invention were tested by adding them to the bath solution in different concentrations. The effects of the substances were calculated as the percentage inhibition of the Kv1.5 control current which was obtained when no substance was added to the solution. The data were then extrapolated using the Hill equation in order to determine the inhibition concentrations IC50 for the respective substances.

Each structure is given as a SMILES string. Where two headings read alike, the source gives them in different places.

Turning to `CC(C)(C)OC(=O)NCc1ccccc1-c1ncccc1C(=O)NCc1ccc(F)cc1F` [Example 6], the IC50 (read-out: IC50) was less than 100 µM.

In the case of `COc1ccc(CC(=O)NCc2ccccc2-c2cccnc2C(=O)Nc2ccc(OC)cc2)cc1` [Example 42], the IC50 (read-out: IC50) was less than 100 µM.

Regarding `COc1ccc(CCC(=O)NCc2ccccc2-c2cccnc2C(=O)Nc2ccc(OC)cc2)cc1` [Example 44], the concentration for half-maximal inhibition (IC50) (read-out: IC50) amounted to 6.7 µM.

Turning to `CC(C)CCNC(=O)c1nccnc1-c1ccccc1CNC(=O)OC(C)(C)C` [Example 7], the half-inhibitory concentration (IC50) (read-out: IC50) is less than 100 µM.

`CC(C)CCNC(=O)c1cccnc1-c1ccccc1CNC(=O)OC(C)(C)C` [Example 5]: the half-maximal inhibitory concentration (IC50) (read-out: IC50) was less than 100 µM.

Consider `COc1ccc(CC(=O)NCc2ccccc2-c2nccnc2C(=O)NCCc2ccccn2)cc1` [Example 53], for which the IC50 result was “inactive”.

As to `CC(C)CCNC(=O)c1ccncc1-c1ccccc1CNC(=O)OCc1ccccc1` [Example 26], where the note is “read-out: IC50”, the IC50 is less than 100 µM.

With `C[C@H](OC(=O)NCc1cnccc1-c1ccccc1C(=O)NCCc1cccnc1)c1ccccc1` [Example 34], the IC50 (read-out: IC50) is 4.7 µM.

Consider `CCOc1ccc(C(=O)NCc2ccccc2-c2cccnc2C(=O)N[C@@H](CC(C)C)C(N)=O)cc1` [Example 40], for which the IC50 (read-out: IC50) is less than 100 µM.

Consider `O=C(Cc1ccc(OC(F)(F)F)cc1)NCc1cnccc1-c1ccccc1C(=O)NCCc1cccnc1` [Example 56], for which, for the setting “read-out: IC50”, the IC50 was 6.1 µM.

Consider `O=C(CCc1cccc(OC(F)(F)F)c1)NCc1ccccc1-c1cccnc1C(=O)NCC1CC1` [Example 62], for which the IC50 (read-out: IC50) came to 1.8 µM.

As to `Cc1onc(-c2ccccc2)c1C(=O)NCc1ccccc1-c1cccnc1C(=O)NCC1CC1` [Example 48], under “read-out: IC50”, the IC50 worked out at 2.4 µM.

For the molecule `CC(CC(=O)NCc1ccccc1-c1cccnc1C(=O)NCCc1ccccn1)c1ccc(F)cc1` (centres unmarked) [Example 45], the 50% inhibitory concentration (IC50) (read-out: IC50) worked out at 0.5 µM.

Regarding `C[C@H](CC(=O)NCc1ccccc1-c1cccnc1C(=O)NCCc1ccccn1)c1ccccc1` [Example 49], where the note is “read-out: IC50”, the IC50 was determined as 0.9 µM.

As for `CCOc1ccc(C(=O)NCc2ccccc2-c2cccnc2C(=O)NCCc2ccccn2)cc1` [Example 37], the IC50 (read-out: IC50) is less than 100 µM.

Consider `C[C@H](OC(=O)NCc1ccccc1-c1cccnc1C(=O)NCC1CC1)c1ccccc1` [Example 23], for which the IC50 (read-out: IC50) turned out to be 0.4 µM.

Turning to `COc1ccc(NC(=O)c2ncccc2-c2ccccc2CNC(=O)O[C@@H](C)c2ccccc2)cc1` [Example 21], the IC50 (read-out: IC50) was 2 µM.

As for `CC(C)(C)OC(=O)NCc1ccccc1-c1nccnc1C(=O)NCc1ccc(F)cc1F` [Example 8], the IC50 (read-out: IC50) was less than 100 µM.

Turning to `O=C(Cc1ccc(OC(F)(F)F)cc1)NCc1cnccc1-c1ccccc1C(=O)NCC1CC1` [Example 55], the IC50 (read-out: IC50) was determined as 3.8 µM.

Take `O=C(CCc1cccc(OC(F)(F)F)c1)NCc1ccccc1-c1cccnc1C(=O)NCCc1cccnc1` [Example 60]: the IC50 (read-out: IC50) was found to be 3.1 µM.

In the case of `O=C(CCc1cccc(OC(F)(F)F)c1)NCc1ccccc1-c1cccnc1C(=O)NCCc1ccccn1` [Example 63], for the setting “read-out: IC50”, the IC50 amounted to 1.8 µM.

Consider `C[C@H](OC(=O)NCc1ccccc1-c1cccnc1C(=O)NCCc1ccccn1)c1ccccc1` [Example 19], for which the IC50 (read-out: IC50) came to 0.6 µM.

As to `CC(C)(C(=O)NCc1ccccc1-c1cccnc1C(=O)NCCc1ccccn1)c1ccc(Cl)cc1` [Example 64], under “read-out: IC50”, the IC50 worked out at 0.9 µM.

Turning to `C[C@H](OC(=O)NCc1ccccc1-c1cccnc1C(=O)NCCc1cccnc1)c1ccccc1` [Example 58], the IC50 (read-out: IC50) was 0.7 µM.

On to `CC(CC(=O)NCc1ccccc1-c1cccnc1C(=O)NCC1CC1)c1ccc(F)cc1` (centres unmarked) [Example 47], for which the IC50 (read-out: IC50) amounted to 3.1 µM.

As to `CC(C)(C)OC(=O)NCc1ccccc1-c1cnccc1C(=O)NCc1ccc(F)cc1F` [Example 4], the half-inhibitory concentration (IC50) (read-out: IC50) was less than 100 µM.

Take `C[C@@H](O)CNC(=O)c1ncccc1-c1ccccc1CNC(=O)C(C)(C)c1ccc(Cl)cc1` [Example 65]: the half-inhibitory concentration (IC50) (read-out: IC50) was less than 100 µM.

`CC(C)(C(=O)NCc1ccccc1-c1cccnc1C(=O)NCC1CC1)c1ccc(Cl)cc1` [Example 61]: the IC50 (read-out: IC50) was 1.7 µM.

`COc1ccc(CC(=O)NCc2ccccc2-c2cccnc2C(=O)N[C@@H](CC(C)C)C(N)=O)cc1` [Example 39]: the IC50 (read-out: IC50) was less than 100 µM.

Take `C[C@H](CC(=O)NCc1ccccc1-c1cccnc1C(=O)NC[C@@H](C)O)c1ccccc1` [Example 67]: the IC50 (read-out: IC50) was less than 100 µM.

For `COc1ccc(CC(=O)NCc2ccccc2-c2ncccc2C(=O)NCc2ccc(F)cc2F)cc1` [Example 51], where the note is “read-out: IC50”, the IC50 is less than 100 µM.

Take `COc1ccc(NC(=O)c2nccnc2-c2ccccc2CNC(=O)OC(C)(C)C)cc1` [Example 12]: the half-maximal inhibitory concentration (IC50) (read-out: IC50) is less than 100 µM.

As to `CC(C)C[C@H](NC(=O)c1ncccc1-c1ccccc1CNC(=O)O[C@@H](C)c1ccccc1)C(N)=O` [Example 20], the IC50 (read-out: IC50) worked out at 1.2 µM.

Turning to `CC(C)C[C@H](NC(=O)c1nccnc1-c1ccccc1CNC(=O)O[C@@H](C)c1ccccc1)C(N)=O` [Example 31], the IC50 (read-out: IC50) was less than 100 µM.

As for `C[C@H](CC(=O)NCc1ccccc1-c1cccnc1C(=O)NCc1cccnc1)c1ccccc1` [Example 46], the IC50 (read-out: IC50) is 2.7 µM.

As to `CC(C)C[C@H](NC(=O)c1nccnc1-c1ccccc1CNC(=O)OC(C)(C)C)C(N)=O` [Example 11], the concentration for half-maximal inhibition (IC50) entry was “inactive”.

For the molecule `CC(C)CCNC(=O)c1ccccc1-c1ccncc1CNC(=O)OC(C)(C)C` [Example 9], for the setting “read-out: IC50”, the IC50 is less than 100 µM.

Consider `CC(C)CCNC(=O)c1ncccc1-c1ccccc1CNC(=O)OCc1ccccc1` [Example 18, Benzyl {2-[2-(3-methylbutylcarbamoyl)pyridin-3-yl]benzyl}carbamate], for which the IC50 (read-out: IC50) came out at 2.6 µM.

As for `CCOc1ccc(C(=O)NCc2ccccc2-c2cccnc2C(=O)Nc2ccc(OC)cc2)cc1` [Example 43], the IC50 (read-out: IC50) was less than 100 µM.

For `CC(CC(=O)NCc1ccccc1-c1cccnc1C(=O)NCCc1cccnc1)c1ccc(F)cc1` (centres unmarked) [Example 59], the concentration for half-maximal inhibition (IC50) (read-out: IC50) was 3.2 µM.

Consider `C[C@@H](O)CNC(=O)c1ncccc1-c1ccccc1CNC(=O)CCc1cccc(OC(F)(F)F)c1` [Example 66], for which the IC50 (read-out: IC50) is less than 100 µM.

With `COc1ccc(CCC(=O)NCc2ccccc2-c2cccnc2C(=O)NCCc2ccccn2)cc1` [Example 38], the IC50 (read-out: IC50) stood at 5.6 µM.

Regarding `CC(C)CCNC(=O)c1cccnc1-c1ccccc1CNC(=O)OCc1ccccc1` [Example 28], the IC50 (read-out: IC50) was 9 µM.

In the case of `C[C@H](CC(=O)NCc1ccccc1-c1cccnc1C(=O)NCC1CC1)c1ccccc1` [Example 35, 3-{2-(R)-[(3-Phenylbutyrylamino)methyl]phenyl}pyridine-2-carboxylate cyclopropylmethylamide], the IC50 (read-out: IC50) was 0.4 µM.

As to `C[C@H](OC(=O)NCc1cnccc1-c1ccccc1C(=O)NCC1CC1)c1ccccc1` [Example 33], the IC50 (read-out: IC50) turned out to be 1.7 µM.

Take `O=C(NCc1ccccc1-c1ncccc1C(=O)NCc1ccc(F)cc1F)OCc1ccccc1` [Example 29]: for the setting “read-out: IC50”, the IC50 came to 7.6 µM.

With `CC(CC(=O)NCc1cnccc1-c1ccccc1C(=O)NCC1CC1)c1ccc(F)cc1` (centres unmarked) [Example 54], the IC50 (read-out: IC50) is less than 100 µM.

As to `COc1ccc(CCC(=O)NCc2ccccc2-c2cccnc2C(=O)N[C@@H](CC(C)C)C(N)=O)cc1` [Example 41], under “read-out: IC50”, the 50% inhibitory concentration (IC50) is less than 100 µM.

`COc1ccc(CC(=O)NCc2ccccc2-c2cccnc2C(=O)NCCc2ccccn2)cc1` [Example 36]: the IC50 (read-out: IC50) is less than 100 µM.

Take `CC(C)CCNC(=O)c1ccncc1-c1ccccc1CNC(=O)OC(C)(C)C` [Example 3]: for the setting “read-out: IC50”, the IC50 was less than 100 µM.
